Data as given in ChEMBL document CHEMBL6153122, “Antimycobacterial Activities of the Zanthoxylum leprieurii Metabolite Adubangoamide and Non-Natural Fagaramide Analogues” (2025).
Values after ≈ are worked out from the molar mass of the structure shown.

Assays:
Type in all cases: functional
[1] = test system: Mycobacterium tuberculosis; assay: Antimycobacterial activity against drug-susceptible Mycobacterium tuberculosis H37Rv by microplate Alamar blue assay
[2] = test system: Mycobacterium tuberculosis; assay: Potency index, ratio of trans-fagaramide MIC to test compound MIC for antimycobacterial activity against drug-susceptible Mycobacterium tuberculosis H37Rv
[3] = test system: Mycobacterium tuberculosis; assay: Antimycobacterial activity against drug-susceptible Mycobacterium tuberculosis H37Rv

Row | SMILES | MIC [1] | Ratio [2] | MIC [3]
1 | CO[C@H]1/C=C/O[C@@]2(C)Oc3c(C)c(O)c4c(O)c(c(/C=N/N5CCN(C)CC5)c(O)c4c3C2=O)NC(=O)/C(C)=C\C=C\[C@H](C)[C@H](O)[C@@H](C)[C@@H](O)[C@@H](C)[C@H](OC(C)=O)[C@@H]1C [RIFAMPIN] | 0.3 µM (≈ 0.247 µg/mL) |  | 
2 | COc1cccc(CNC(=O)/C=C/c2ccc3c(c2)OCO3)c1 | 200 µM (≈ 62.3 µg/mL) |  | 
3 | O=C(/C=C/c1ccc2c(c1)OCO2)NCc1ccc(N2CCC(c3ccc(F)cc3)CC2)cc1 | 17 µM (≈ 7.8 µg/mL) |  | 
4 | O=C(/C=C/c1ccc2c(c1)OCO2)NCc1ccc(C(F)(F)F)cc1F | 21 µM (≈ 7.71 µg/mL) |  | 
5 | O=C(/C=C/c1ccc2c(c1)OCO2)NCc1cc(F)cc(F)c1 | 6.1 µM (≈ 1.94 µg/mL) | 6 | 
6 | O=C(/C=C/c1ccc2c(c1)OCO2)NCc1ccccc1Cl | 100 µM (≈ 31.6 µg/mL) |  | 
7 | CC(C)=CCOc1ccc(/C=C/C(=O)NCC(C)C)cc1 | 10 µM (≈ 2.87 µg/mL) | 3 | 
8 | CN(C)c1ccc(CNC(=O)/C=C/c2ccc3c(c2)OCO3)cc1 | 6 µM (≈ 1.95 µg/mL) | 6 | 
9 | O=C(/C=C/c1ccc2c(c1)OCO2)NCc1ccccc1 | 167 µM (≈ 47 µg/mL) |  | 
10 | CC(C)CNC(=O)/C=C/c1ccc2c(c1)OCO2 [FOGARAMIDE] |  |  | 32 µM (≈ 7.91 µg/mL)
11 | O=C(/C=C/c1ccc2c(c1)OCO2)NCc1ccc(N2CCC(C(F)(F)F)CC2)cc1 | 4.5 µM (≈ 1.95 µg/mL) | 6 | 
